For assay [1], the target named is T1, GST-LXRα-LBD (human LXR alpha, aa 164 to 447) (Homo sapiens, UniProt Q13133).
T1 construct: human LXR alpha (aa 164 to 447); made in house; host or cells: E. coli BL21(pLysS)
T1 sequence (Q13133 164-447): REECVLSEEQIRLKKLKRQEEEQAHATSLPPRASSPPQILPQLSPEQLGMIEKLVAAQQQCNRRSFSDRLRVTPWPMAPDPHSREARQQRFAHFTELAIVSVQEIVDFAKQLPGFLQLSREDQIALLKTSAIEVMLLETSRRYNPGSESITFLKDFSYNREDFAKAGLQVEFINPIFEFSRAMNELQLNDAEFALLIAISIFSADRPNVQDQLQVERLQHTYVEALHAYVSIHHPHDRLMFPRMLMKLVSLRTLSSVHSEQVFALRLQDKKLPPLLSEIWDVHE
The assay is described as follows: Radioligand binding assay (SPA), LXR alpha. The following applies: GST-LXRα-LBD on SPA beads, read-out: LXRalpha Binding IC50. An excerpt:
(§1) Mammalian expression vectors were constructed to express full-length human LXR alpha and LXR beta. Bacterial expression vectors were constructed to produce glutathione-s-transferase (GST) fused to the ligand binding domains (LBD) of human LXR alpha (aa 164 to 447) and human LXR beta (aa 155 to 460). To accomplish this, the portions of the sequences encoding the LBDs were amplified from full-length clones by PCR and then subcloned into the plasmid vectors. Final clones were verified by DNA sequence analysis (Willy et al., Genes Dev. 1995, 9:1033-45; Song et al., Proc Natl Acad Sci USA. 1994, 91:10809-13).
(§2) Induction, expression, and purification of GST-LBD fusion proteins were performed in E. coli strain BL21(pLysS) cells by standard methods (Ref: Current Protocols in Molecular Biology, Wiley Press, edited by Ausubel et al).
(§3) LXR alpha and LXR beta receptor binding were assayed in buffer consisting of 50 mM HEPES, pH 7.4, 10 mM NaCl, 5 mM MgCl2. For each 96-well reaction, 500 ng of GST-LXRα-LBD or 700 ng of GST-LXR beta-LBD fusion proteins were bound to 80 μg or 40 μg SPA beads (Pharmacia Amersham) respectively, in a final volume of 50 μl by shaking. […] All binding assays were performed in 96-well plates and the amount of bound ligand was measured on a Packard TopCount using OptiPlates (Packard). Dose response curves were measured within a range of concentration from 10^−10 M to 10^−4 M.

The target in assay [2] is T2, GST-LXR beta-LBD (human LXR beta, aa 155 to 460) (Homo sapiens, UniProt P55055).
T2 construct: human LXR beta (aa 155 to 460); made in house; host or cells: E. coli BL21(pLysS)
T2 sequence (P55055 155-460): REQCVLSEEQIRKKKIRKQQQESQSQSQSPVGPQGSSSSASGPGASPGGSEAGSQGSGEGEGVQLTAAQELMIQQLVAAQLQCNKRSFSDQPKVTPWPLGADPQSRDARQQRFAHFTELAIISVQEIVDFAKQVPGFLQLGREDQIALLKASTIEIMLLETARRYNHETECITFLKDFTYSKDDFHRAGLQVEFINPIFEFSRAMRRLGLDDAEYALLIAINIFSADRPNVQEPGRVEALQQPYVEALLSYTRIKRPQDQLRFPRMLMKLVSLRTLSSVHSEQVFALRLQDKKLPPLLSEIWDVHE
The assay is described as follows: Radioligand binding assay (SPA), LXR beta. The following applies: GST-LXR beta-LBD on SPA beads, read-out: LXRbeta Binding IC50.
Description: as §1, §2, §3

For two molecules, IC50 results are on record in patent US7253282B2 (Hoffman-La Roche Inc., priority 2004, dated 2007).

As to `Cc1nn(C)c(Cl)c1S(=O)(=O)N(CC(F)(F)F)[C@H]1CC[C@H](C(O)(C(F)(F)F)C(F)(F)F)CC1` [Example 17], the IC50 in assay [1] worked out at 1500 nM; in assay [2] it was 1400 nM.

Take `O=S(=O)(c1ccccc1)N(CC(F)(F)F)[C@H]1CC[C@H](C(O)(C(F)(F)F)C(F)(F)F)CC1` [Example 1, trans N-(2,2,2-trifluoro-ethyl)-N-[4-(2,2,2-trifluoro-1-hydroxy-1-trifluoromethyl-ethyl)-cyclohexyl]-benzenesulfonamide]: the figures for the IC50 in assay [1] and in assay [2] were 20 nM and 70 nM, respectively.

As a reminder, the IC50 is the concentration needed to halve the response being measured.
